Values of other authors, collected in patent US20050143343A1, “Nutritional supplement for enhancing the production and effect of natural human growth hormone” (priority 2003, published 2005).

System: human growth hormone secretion
Settings: oral administration, 15 male volunteers; 1200 mg of each constituent, in combination or alone at the same doses

| Molecule | secretion (release) of human growth hormone |
| --- | --- |
| L-arginine-2-pyrrolidone-5-carboxylate | Neither of the two constituents resulted a significant release of human growth hormone |
| Cl.NCCCC[C@H](N)C(=O)O [L-lysine hydrochloride] | Neither of the two constituents resulted a significant release of human growth hormone |
